Data on six molecules can be found in PMC6045489 (ACS Omega, 2018).

In assay [1] the test system is MDA-MB-231 human breast adenocarcinoma cell line. The assay can be described thus: Sulforhodamine B antiproliferative assay, MDA-MB-231. In kind it is cell-based. Particulars: MDA-MB-231, read-out: IC50 MDA-MB-231, mean ± SEM.
The subject of assay [2] is HEK-293 primary human embryonic kidney cell line. The assay can be described thus: Sulforhodamine B assay, control cell line HEK-293. In kind it is cell-based. The settings on record: HEK293, read-out: IC50 HEK-293, mean ± SEM, normal control cells.
Assay [3] relates to HeLa cervical cancer cell line. Briefly: Sulforhodamine B antiproliferative assay, HeLa. Particulars: Homo sapiens, read-out: IC50 HeLa, mean ± SEM. Format: cell-based.
The subject of assay [4] is A549 lung cancer cell line. Briefly: Sulforhodamine B antiproliferative assay, A549. In kind it is cell-based. The settings on record: Homo sapiens, A549, read-out: IC50 A549, mean ± SEM.
The test system of assay [5] is DU-145 prostate cancer cell line. The assay can be described thus: Sulforhodamine B antiproliferative assay, DU-145. In kind it is cell-based. The settings on record: Homo sapiens, DU-145, read-out: IC50 DU-145, mean ± SEM.
Another assay relates to DU-145 cells. Briefly: Immunoblot of apoptotic proteins. The settings on record: DU-145, immunoblot, vs vehicle control. In kind it is cell-based, human.
The next assay deals with HeLa cells. The settings on record: read-out: IC50 HeLa (reported literature value); cited from earlier work.

For `CC(O)[C@@H]1CCCN1C(=O)[C@@H]1CCCN1C(=O)OC(C)(C)C` (mixture of isomers) [Compound 22, (2S)-tert-Butyl 2-((2S)-2-(1-Hydroxyethyl)pyrrolidine-1-carbonyl)pyrrolidine-1-carboxylate], the IC50 in assay [1] was determined as 8 ± 0.4 µM; in assay [2], 3390 ± 123 µM; in assay [3], 26 ± 3 µM; in assay [4] it was 0.5 ± 0.03 µM; in assay [5], 2 ± 0.8 µM.

Take `C#CCCCC[C@H](C)C[C@@H](C)C(=O)O` [Compound 2, (2R,4S)-2,4-Dimethyldec-9-ynoic Acid]: the IC50 was 164 ± 20 µM in assay [1]; 259 ± 35 µM in assay [2]; 122 ± 14 µM in assay [3]; 167 ± 12 µM in assay [4]; 123 ± 20 µM in assay [5].

With `C#CCCCC[C@H](C)C[C@@H](C)C(=O)N1C(=O)OC[C@H]1Cc1ccccc1` [Compound 17, (R)-4-Benzyl-3-((2R,4S)-2,4-dimethyldec-9-ynoyl)oxazolidin-2-one], the IC50 in assay [1] turned out to be 102 ± 14 µM; in assay [2], 293 ± 16 µM; in assay [3] it was 160 ± 10 µM; in assay [4], 158 ± 15 µM; in assay [5] it was 188 ± 29 µM.

As for `CC(=O)[C@@H]1CCCN1C(=O)[C@@H]1CCCN1C(=O)OC(C)(C)C` [Compound 21, tert-Butyl(S)-2-((S)-2-acetylpyrrolidine-1-carbonyl)pyrrolidine-1-carboxylate], the IC50 amounted to 3 ± 0.1 µM in assay [1]; 5440 ± 245 µM in assay [2]; 5 ± 1 µM in assay [3]; 5 ± 0.4 µM in assay [4]; 1 ± 0.9 µM in assay [5].

With `COc1cccc2c1C(=O)c1c(O)c3c(c(O)c1C2=O)C[C@@](O)(C(=O)CO)C[C@@H]3O[C@H]1C[C@H](N)[C@H](O)[C@H](C)O1` [doxorubicin, reference compound], the “Annexin V protein expression” value with DU-145 cells was “highly expressed”. In addition, in the assay on DU-145 cells, the BAX protein expression entry is listed as “highly expressed”. The IC50 in assay [1] was 1 ± 0.1 µM; in assay [2] it was 39 ± 2 µM; in assay [4], 1 ± 0.1 µM; in assay [5], 0.5 ± 0.2 µM.

As to jahanyne, the half-maximal inhibitory concentration (IC50) in the assay with HeLa cells was 1.8 µM.
